Results as given in the supplement of paper PMC10331698.
± gives the standard deviation of the averaged measurements.

What was measured:
Assay in all cases: level (log10 ratio to DMSO vehicle control); higher = higher biomarker level / cell amount than vehicle control
Conditions in all cases: in DMSO
[1] = compound: C=CC(=O)OCCC(F)(F)C(F)(F)C(F)(F)C(F)(F)C(F)(F)C(F)(F)C(F)(F)C(F)(F)F [8:2 Fluorotelomer acrylate]
Experimental: (§1)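 BioMAP Diversity Plus panel of 12 human primary cell co-culture systems (3C, 4H, LPS, SAg, BT, BF4T, BE3C, CASM3C, HDF3CGF, KF3CT, MyoF, Mphg). Compounds were added 1 h before stimulation and left for 24 h (MyoF 48 h; BT 72 h for soluble read-outs or 6 d for IgG). Biomarkers were read by ELISA, cytotoxicity by SRB, PBMC viability and proliferation by Alamar Blue. Each well value was divided by the mean of 8 DMSO control wells on the same plate and log10 transformed; duplicate blinded samples were tested at 4 concentrations.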

Methotrexate = compound: CN(Cc1cnc2nc(N)nc(N)c2n1)c1ccc(C(=O)N[C@@H](CCC(=O)O)C(=O)O)cc1 [Methotrexate]
Experimental: as §1

[2] = compound: O=P(O)(O)CCC(F)(F)C(F)(F)C(F)(F)C(F)(F)C(F)(F)C(F)(F)F [2-(Perfluorohexyl)ethylphosphonic acid]
Experimental: as §1

[3] = compound: O=S(=O)(OCC(F)(F)F)C(F)(F)C(F)(F)C(F)(F)C(F)(F)F [2,2,2-Trifluoroethyl perfluorobutanesulfonate]
Experimental: as §1

Perfluoropinacol = compound: OC(C(F)(F)F)(C(F)(F)F)C(O)(C(F)(F)F)C(F)(F)F [Perfluoropinacol]
Experimental: as §1

[4] = compound: OCCCCC(F)(F)C(F)(F)C(F)(F)C(F)(F)F [4:4 Fluorotelomer alcohol]
Experimental: as §1

Test System | level (log10) ([1]; 6700 nM) | level (log10) ([1]; 20000 nM) | level (log10) ([1]; 60000 nM) | level (log10) (Methotrexate; 1500 nM) | level (log10) (Methotrexate; 4400 nM) | level (log10) (Methotrexate; 13000 nM) | level (log10) (Methotrexate; 40000 nM) | level (log10) ([2]; 6700 nM) | level (log10) ([2]; 20000 nM) | level (log10) ([2]; 60000 nM) | level (log10) ([3]; 6700 nM) | level (log10) ([3]; 20000 nM) | level (log10) ([3]; 60000 nM) | level (log10) (Perfluoropinacol; 6700 nM) | level (log10) (Perfluoropinacol; 20000 nM) | level (log10) ([4]; 6700 nM) | level (log10) ([4]; 20000 nM) | level (log10) ([4]; 60000 nM)
BT:Secreted IgG | -0.0205 ± 0.012 | -0.041 ± 0.031 | -0.11 ± 0.13 | -1.302 ± 0.011 | -1.31 ± 0.079 | -1.33 | -1.26 | 0.0125 ± 0.0021 | 0.002 ± 0.0099 | -0.046 ± 0.047 | -0.0615 ± 0.043 | -0.0585 ± 0.016 | -0.162 ± 0.058 | -0.322 ± 0.02 | -1.36 | 0.01 ± 0.024 | 0.0045 ± 0.021 | -0.0055 ± 0.037
SAg:CXCL9/MIG | -0.0065 ± 0.0035 | -0.017 ± 0.0014 | 0.009 ± 0.0099 | 0.0095 ± 0.0035 | 0 ± 0.035 | 0.006 ± 0.034 | -0.003 ± 0.027 | 0.0025 ± 0.0035 | -0.012 | 0.0005 ± 0.022 | 0.0035 ± 0.015 | -0.004 ± 0.0014 | 0 ± 0.013 | -0.002 ± 0.0028 | -0.005 ± 0.0014 | 0.0015 ± 0.0021 | -0.006 ± 0.0071 | 0.0045 ± 0.012
BF4T:MMP-9 | -0.0255 ± 0.0064 | -0.0215 ± 0.012 | -0.021 ± 0.042 | 0.0265 ± 0.012 | -0.0075 ± 0.029 | 0.014 ± 0.0099 | 0.016 | -0.0155 ± 0.00071 | -0.0015 ± 0.0078 | 0.018 ± 0.035 | -0.017 ± 0.0028 | -0.0145 ± 0.029 | -0.0225 ± 0.0064 | -0.0245 ± 0.00071 | -0.0515 ± 0.0092 | 0.0045 ± 0.013 | -0.0015 ± 0.013 | 0.0275 ± 0.06
BF4T:PAI-I | -0.0035 ± 0.0064 | -0.0055 ± 0.0035 | 0.007 ± 0.017 | -0.002 ± 0.014 | -0.0075 ± 0.0078 | -0.0065 ± 0.0078 | -0.002 ± 0.0071 | -0.0075 ± 0.0092 | -0.0115 ± 0.0035 | -0.016 ± 0.038 | -0.0035 ± 0.0035 | -0.0075 ± 0.00071 | -0.0025 ± 0.0021 | -0.0315 ± 0.0035 | -0.0845 ± 0.0064 | 0.0065 ± 0.0078 | 0.011 ± 0.0099 | 0.0125 ± 0.012
BF4T:IL-1alpha | -0.0115 ± 0.013 | -0.0185 ± 0.00071 | 0.015 ± 0.037 | 0.0145 ± 0.00071 | -0.037 ± 0.0042 | -0.012 ± 0.031 | 0.0045 ± 0.0021 | 0.0005 ± 0.015 | -0.014 ± 0.013 | 0.002 ± 0.042 | 0.0195 ± 0.023 | 0.0085 ± 0.026 | 0.0075 ± 0.015 | 0.0025 ± 0.012 | -0.025 ± 0.0057 | 0.0075 ± 0.013 | -0.0105 ± 0.0035 | -0.001 ± 0.017
SAg:Proliferation | 0.0035 ± 0.022 | -0.0625 ± 0.0064 | -0.0055 ± 0.043 | -0.085 ± 0.011 | -0.199 ± 0.044 | -0.253 ± 0.016 | -0.263 ± 0.023 | 0.0125 ± 0.0078 | -0.0165 ± 0.019 | -0.036 ± 0.03 | -0.0055 ± 0.032 | -0.053 ± 0.023 | -0.048 ± 0.018 | 0.0035 ± 0.093 | -0.163 ± 0.021 | -0.026 ± 0.014 | -0.0185 ± 0.0035 | -0.005 ± 0.047
BT:PBMC Cytotoxicity | 0.011 ± 0.018 | -0.0035 ± 0.035 | -0.021 ± 0.079 | -0.037 ± 0.0071 | -0.0455 ± 0.0021 | -0.0635 ± 0.0078 | -0.049 ± 0.035 | 0.0025 ± 0.053 | 0.0325 ± 0.021 | 0.07 ± 0.047 | 0.0225 ± 0.022 | 0.0235 ± 0.056 | 0.053 ± 0.062 | 0.011 ± 0.017 | -0.0095 ± 0.023 | -0.0265 ± 0.0064 | -0.035 ± 0.0014 | -0.0195 ± 0.064
BT:sIL-2 | 0.051 ± 0.0042 | -0.061 ± 0.17 | -0.036 ± 0.13 | 0.0155 ± 0.016 | -0.0845 ± 0.11 | 0.0085 ± 0.035 | -0.075 ± 0.035 | 0.076 ± 0.013 | 0.023 ± 0.0071 | 0.0355 ± 0.11 | 0.015 ± 0.0042 | 0.116 ± 0.068 | 0.102 ± 0.014 | 0.107 ± 0.059 | 0.0335 ± 0.071 | -0.0015 ± 0.044 | -0.0135 ± 0.043 | -0.017 ± 0.092
BF4T:CCL26/Eotaxin-3 | -0.0555 ± 0.012 | -0.0785 ± 0.079 | -0.098 ± 0.12 | 0.057 ± 0.0014 | -0.005 ± 0.14 | 0.0465 ± 0.029 | 0.031 ± 0.072 | -0.0135 ± 0.022 | -0.04 ± 0.0099 | -0.034 ± 0.079 | -0.0015 ± 0.016 | -0.018 ± 0.0071 | -0.014 ± 0.037 | -0.108 ± 0.0042 | -0.217 ± 0.0057 | -0.0205 ± 0.046 | -0.0015 ± 0.015 | 0.0105 ± 0.047
LPS:CD62E/E-Selectin | 0.002 ± 0.011 | 0 ± 0.011 | 0.019 ± 0.014 | -0.01 ± 0.024 | -0.0185 ± 0.0021 | 0.005 ± 0.0014 | 0.005 ± 0.025 | -0.0005 ± 0.015 | -0.004 ± 0.011 | 0.0465 ± 0.012 | 0.0025 ± 0.019 | -0.004 ± 0.02 | -0.0795 ± 0.043 | 0.003 ± 0.0085 | -0.027 ± 0.028 | -0.0015 ± 0.033 | -0.0135 ± 0.028 | -0.012 ± 0.0099
LPS:CXCL8/IL-8 | -0.0055 ± 0.0092 | -0.036 ± 0.04 | -0.0085 ± 0.018 | -0.015 ± 0.0085 | -0.001 ± 0.013 | 0.0045 ± 0.0021 | 0.0055 ± 0.013 | -0.023 ± 0.024 | -0.0235 ± 0.0021 | 0.0375 ± 0.054 | -0.004 ± 0.034 | -0.002 ± 0.0099 | -0.0205 ± 0.026 | -0.003 ± 0.0028 | -0.0315 ± 0.0021 | 0.0295 ± 0.005 | 0.0205 ± 0.033 | 0.027 ± 0.041
BF4T:MMP-1 | 0.002 ± 0.0057 | 0.0025 ± 0.0021 | 0.0175 ± 0.022 | 0.0195 ± 0.015 | 0.0005 ± 0.016 | -0.012 ± 0.03 | 0.0015 ± 0.011 | -0.0045 ± 0.0092 | -0.004 | 0.0035 ± 0.026 | -0.0035 ± 0.015 | -0.0005 ± 0.015 | -0.0095 ± 0.0021 | -0.0245 ± 0.00071 | -0.0165 ± 0.0035 | 0.0075 ± 0.018 | 0.0045 ± 0.025 | 0.009 ± 0.03
